From ChEMBL document CHEMBL5360574, “Optimization of potent, selective and orally bioavailable biphenyl scaffold as FABP4 inhibitors for anti-inflammation” (Eur J Med Chem, 2023)
The source made the active and inactive calls. No cut-off for these calls is given here.

Assays:
[1] = biological target: Fatty acid-binding protein, adipocyte (Homo sapiens, UniProt P15090); experiment: Displacement of 1,8-ANS from FABP4 (unknown origin) assessed as inhibition constant by fluorescence based analysis
[2] = biological target: Fatty acid-binding protein, heart (Homo sapiens, UniProt P05413); experiment: Displacement of 1,8-ANS from FABP3 (unknown origin) assessed as inhibition constant by fluorescence based analysis
THP-1 [3] = experiment: Cytotoxicity against human THP-1 cells assessed as reduction in cell growth at 80 uM measured after 24 hrs by CCK-8 assay; type: toxicity, cell-based; conditions: thp-1, 24 h
3T3-L1 = experiment: Cytotoxicity against mouse 3T3-L1 cells assessed as reduction in cell growth at 100 uM measured after 24 hrs by CCK-8 assay; type: toxicity, cell-based; conditions: 3t3-l1, 24 h
Mus musculus [4] = experiment: Antiinflammatory activity in LPS-induced acute inflammation C57BL/6J mouse model assessed as reduction in ALT level in serum at 50 mg/kg, po qd via gavage administered for 4 days followed by LPS induction; type: functional, organism-based; conditions: time 4.0 day
[5] = Toxicity in LPS-induced acute inflammation C57BL/6J mouse model assessed as effect on liver damage at 50 mg/kg, po qd via gavage administered for 4 days followed by LPS induction by hematoxylin and eosin staining based microscopic analysis; type: organism-based; conditions: in vivo, 96 h, time 4 day
Mus musculus [6] = experiment: Antiinflammatory activity in LPS-induced acute inflammation C57BL/6J mouse model assessed as reduction in MCP-1 level in serum at 50 mg/kg, po qd via gavage administered for 4 days followed by LPS induction; type: functional, organism-based; conditions: time 4.0 day
THP-1 [7] = experiment: Antiinflammatory activity in LPS-induced human THP-1 cells assessed as reduction in MCP-1 mRNA expression at 25 uM incubated for 24 hrs by RT-PCR analysis; type: functional, cell-based
Mus musculus [8] = experiment: Antiinflammatory activity in LPS-induced acute inflammation C57BL/6J mouse model assessed as reduction in AST level in serum at 50 mg/kg, po qd via gavage administered for 4 days followed by LPS induction; type: functional, organism-based; conditions: time 4.0 day
[9] = Toxicity in LPS-induced acute inflammation C57BL/6J mouse model assessed as effect on spleen damage at 50 mg/kg, po qd via gavage administered for 4 days followed by LPS induction by hematoxylin and eosin staining based microscopic analysis; type: organism-based; conditions: in vivo, 96 h, time 4 day
[10] = Toxicity in LPS-induced acute inflammation C57BL/6J mouse model assessed as change in body weight at 50 mg/kg, po qd via gavage administered for 4 days followed by LPS induction; type: organism-based; conditions: in vivo, 96 h, time 4 day
[11] = Tmax in ICR mouse at 25 mg/kg, po measured upto 24 hrs by LC-MS/MS analysis; type: ADME, organism-based; conditions: in vivo
[12] = Half life in ICR mouse at 25 mg/kg, po measured upto 24 hrs by LC-MS/MS analysis; type: ADME, organism-based; conditions: in vivo
[13] = MRT in ICR mouse at 25 mg/kg, po measured upto 24 hrs by LC-MS/MS analysis; type: ADME, organism-based; conditions: in vivo
[14] = Metabolic stability in mouse liver microsomes assessed as half life at 0.1 uM measured upto 60 mins in presence of NADPH by LC-MS/MS analysis; type: ADME, Microsome
THP-1 [15] = experiment: Antiinflammatory activity in LPS-induced human THP-1 cells assessed as inhibition of MCP-1 secretion at 1 uM pre-incubated with compound for 18 hrs followed by LPS induction measured after 6 hrs by ELISA method; type: functional, cell-based; conditions: time 24.0 hrs
[16] = Metabolic stability in mouse liver microsomes assessed as intrinsic clearance at 0.1 uM measured upto 60 mins in presence of NADPH by LC-MS/MS analysis; type: ADME, Microsome; conditions: 1 h
[17] = Half life in ICR mouse at 3 mg/kg, iv measured upto 24 hrs by LC-MS/MS analysis; type: ADME, organism-based; conditions: in vivo
[18] = Cmax in ICR mouse at 25 mg/kg, po measured upto 24 hrs by LC-MS/MS analysis; type: ADME, organism-based; set-up: dose 25 mg/kg, time < 24 hrs, route po; conditions: in vivo
[19] = Clearance in ICR mouse at 3 mg/kg, iv measured upto 24 hrs by LC-MS/MS analysis; type: ADME, organism-based; conditions: in vivo
[20] = AUC(0 to 24 hrs) in ICR mouse at 3 mg/kg, iv measured upto 24 hrs by LC-MS/MS analysis; type: ADME, organism-based; set-up: dose 3 mg/kg, time < 24 hrs, route iv; conditions: in vivo
[21] = MRT in ICR mouse at 3 mg/kg, iv measured upto 24 hrs by LC-MS/MS analysis; type: ADME, organism-based; conditions: in vivo
[22] = Metabolic stability in mouse liver microsomes assessed as intrinsic clearance at 0.1 uM measured per gram protein measured upto 60 mins in presence of NADPH by LC-MS/MS analysis; type: ADME, Microsome; conditions: 1 h
[23] = Volume of distribution at steady state in ICR mouse at 3 mg/kg, iv measured upto 24 hrs by LC-MS/MS analysis; type: ADME, organism-based; conditions: in vivo, read-out: Vdss
[24] = AUC(0 to 24 hrs) in ICR mouse at 25 mg/kg, po measured upto 24 hrs by LC-MS/MS analysis; type: ADME, organism-based; set-up: time < 24 hrs, dose 25 mg/kg, route po; conditions: in vivo
[25] = Oral bioavailability in ICR mouse at 25 mg/kg measured upto 24 hrs by LC-MS/MS analysis; type: ADME, organism-based; conditions: in vivo

Sequence of Fatty acid-binding protein, adipocyte (P15090 whole entry): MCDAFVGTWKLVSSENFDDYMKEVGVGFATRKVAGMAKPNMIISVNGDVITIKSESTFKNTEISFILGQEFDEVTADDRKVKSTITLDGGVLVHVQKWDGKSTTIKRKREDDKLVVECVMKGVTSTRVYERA
Sequence of Fatty acid-binding protein, heart (P05413 whole entry): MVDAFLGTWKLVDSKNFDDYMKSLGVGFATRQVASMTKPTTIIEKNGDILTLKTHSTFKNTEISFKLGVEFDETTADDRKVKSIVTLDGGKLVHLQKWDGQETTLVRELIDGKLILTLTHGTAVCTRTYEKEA

For `Cc1ccc(-c2cccc(Cl)c2-c2ccc3c(c2)CCO3)cc1C(=O)O`, the Ki [1] was 320 nM.

In the case of `O=C(O)c1ccccc1Nc1cccc(Cl)c1-c1ccc2c(c1)CCO2`, the Ki [2] is reported as 920 nM, the Activity (THP-1 [3]) is reported as “Non-Toxic” and the Activity (3T3-L1) is reported as “Non-Toxic”.

`O=C(O)c1cc(-c2cccc(Cl)c2-c2ccc3c(c2)CCO3)ccc1O` showed a Ki [1] of 280 nM.

With `O=C(O)C1CCc2ccc(-c3cccc(Cl)c3OCC3CCC3)cc21` (centres undefined) the Ki [1] was 750 nM.

`O=C(O)C1CCc2ccc(-c3cccc(Cl)c3-c3ccc4nonc4c3)cc21` (centres undefined) showed a Ki [1] of 2370 nM.

For `O=C(O)C1CCc2ccc(-c3cccc(Cl)c3OC3CCC3)cc21` (centres undefined), the Ki [1] was 790 nM.

Work on `O=C(O)C1CCc2ccc(-c3cccc(Cl)c3OCc3ccccc3)cc21` (centres undefined) yielded a Ki [1] of 1320 nM.

In the case of `CC(C(=O)O)c1cccc(-c2cccc(Cl)c2-c2ccc3c(c2)CCO3)c1` (centres undefined), the Ki [1] is reported as 1470 nM.

`O=C(O)c1cc(-c2cccc(Cl)c2-c2ccc3occc3c2)ccc1C(F)(F)F` gave a Ki [1] of 720 nM.

With `O=C(O)Cc1cccc(-c2cccc(Cl)c2-c2ccc3c(c2)CCO3)c1` the Ki [1] was 350 nM.

`O=C(O)C1CCc2ccc(-c3cccc(Cl)c3OCC3CCCCC3)cc21` (centres undefined) gave a Ki [1] of 1800 nM.

With `CCc1c(-c2ccccc2)c(-c2ccccc2)nn1-c1ccccc1-c1cccc(OCC(=O)O)c1` the Activity (THP-1 [3]) was “Non-Toxic”, the Activity (Mus musculus [4]) was “Active” and the Activity [5] was “Non-Toxic”. The Activity (Mus musculus [6]) was “Active”, the Activity (THP-1 [7]) was “Active” and the Activity (3T3-L1) was “Non-Toxic”. The Activity (Mus musculus [8]) was “Active”, the Activity [9] was “Non-Toxic” and the Activity [10] was “Non-Toxic”.

For `O=C(O)CCc1cccc(-c2cccc(Cl)c2-c2ccc3c(c2)CCO3)c1`, the Ki [1] was 1810 nM.

For `O=C(O)c1cccc(-c2cccc(Cl)c2-c2ccc3c(c2)CCO3)c1`, the Ki [1] was 480 nM.

For `O=C(O)c1cc(O)cc(-c2cccc(Cl)c2-c2ccc3c(c2)CCO3)c1`, the Ki [1] was 550 nM.

Molecule `O=C(O)C1CCc2ccc(-c3cccc(Cl)c3-c3ccc4occc4c3)cc21` (centres undefined) has a Ki [1] of 690 nM.

With `Nc1ccc(-c2cccc(Cl)c2-c2ccc3c(c2)CCO3)cc1C(=O)O` the Ki [1] was 430 nM.

Work on `O=C(O)c1cc(-c2cccc(Cl)c2-c2ccc3nonc3c2)ccc1C(F)(F)F` yielded a Ki [1] of 920 nM.

With `O=C(O)c1cc(-c2cccc(Cl)c2-c2ccc3c(c2)CCO3)ccc1[N+](=O)[O-]` the Ki [1] was 300 nM.

For `O=C(O)C1CCc2ccc(-c3cccc(Cl)c3-c3ccc4c(c3)OCO4)cc21` (centres undefined), the Ki [1] was 790 nM.

For `O=C(O)c1cc(-c2cccc(Cl)c2-c2ccc3c(c2)OCO3)ccc1C(F)(F)F`, the Ki [1] was 1690 nM.

With `O=C(O)C1CCc2ccc(-c3cccc(Cl)c3-c3ccc4[nH]ncc4c3)cc21` (centres undefined) the Ki [1] was 760 nM.

With `O=C(O)c1cc(-c2cccc(Cl)c2-c2ccc3c(c2)CCO3)ccc1C(F)(F)F` the Tmax [11] was 0.25 h, the half-life [12] was 3.43 h and the MRT [13] was 5.3 h. The half-life at 0.1 µM [14] was 8.9 h, the Ki [2] was 33000 nM and the Activity (THP-1 [3]) was “Non-Toxic”. The Activity (THP-1 [15]) was “Active”, the CLH [16] was 0.266 mL/min and the half-life [17] was 5.64 h. For the same molecule, the Activity (Mus musculus [4]) was “Active”, the Activity [5] was “Non-Toxic” and the Cmax [18] was 15500 ng/mL. The Activity (Mus musculus [6]) was “Active”, the clearance [19] was 12.5 mL/min/kg and the AUC(0-t) at 24 h [20] was 3600 ng·h/mL. The MRT [21] was 4.04 h, the CLH [22] was 3.94 mL/min/g and the Vd [23] was 3.32 L/kg. The Activity (THP-1 [7]) was “Active”, the Activity (3T3-L1) was “Non-Toxic” and the Activity (Mus musculus [8]) was “Active”. For the same molecule, the AUC(0-t) at 24 h [24] was 26800 ng·h/mL, the Activity [9] was “Non-Toxic” and the Activity [10] was “Non-Toxic”. For the same molecule, the bioavailability [25] was 89.4% and the Ki [1] was 510 nM.

For `O=C(O)C1CCc2ccc(-c3cccc(Cl)c3-c3ccc4c(c3)CCO4)cc21` (centres undefined), the half-life at 0.1 µM [14] was 0.883 h, the Ki [2] was 18100 nM and the Activity (THP-1 [3]) was “Non-Toxic”. For the same molecule, the CLH [16] was 2.66 mL/min, the CLH [22] was 39.4 mL/min/g and the Activity (THP-1 [7]) was “Active”. For the same molecule, the Activity (3T3-L1) was “Non-Toxic” and the Ki [1] was 580 nM.

`O=C(O)C1CCc2ccc(-c3cccc(Cl)c3-c3ccc4ocnc4c3)cc21` (centres undefined) showed a Ki [1] of 740 nM.

In the case of `O=C(O)C1CCc2ccc(-c3cccc(Cl)c3OCC3CCCC3)cc21` (centres undefined), the Ki [1] is reported as 1730 nM.

In the case of `CS(=O)(=O)Nc1ccc(-c2cccc(Cl)c2-c2ccc3c(c2)CCO3)cc1C(=O)O`, the Ki [1] is reported as 330 nM.
